Experimental data from patent US11083714B2, “Selective anti-cancer agent effective for prevention and treatment” (Molecular International Research, Inc., priority 2018, dated 2021).
“Also recorded” adds a separate entry of the source. Read-outs that look alike come from different tables or passages of the source.

Assays:
AM-38 = assay: Glioblastoma cell viability and proliferation assay (ATP), AM-38; type: cell-based; conditions: AM38, 72 hr
Experimental: FIG. 9. Glioblastoma in vitro cell viability and proliferation assay after treatment with de-ethylflavopereirine. Glioblastoma cell lines U-87MG, DBTRG-05MG, A172, and AM-38 were tested. Temozolomide, an oral chemotherapy drug known to treat some brain cancers, was used as a control. The concentrations of temozolomide (circles) or compound 13-9-1 (squares) used were 3 nM, 10 nM, 30 nM, 100 nM, 1 uM, 3 uM, 10 uM, and 30 uM. Each of the cell lines was treated with de-ethylflavopereirine for 72 hr before measuring cytotoxicity and inhibition of cell proliferation. Number of viable cells in culture based on quantitation of ATP. IC50 was determined as indicated below each graph.
The dose-response curves for the anti-brain cancer drug temozolomide are shown for comparison.

[1] = type: in vivo; conditions: 100, 150 and 200 mg/kg, groups of two, 48 hr observation
Experimental: A study with synthetic compounds 13-7-2 (flavopereirine) and 13-9-1 (de-ethylflavopereirine) was conducted to compare the toxicity of the two compounds in animals. The compounds were dissolved in phosphate buffered saline for administration. Both compounds were injected IP in male immunodeficient (homozygous recessive scid/scid, beige/beige) mice.
Compound 13-7-2 was injected at a dose of 100 mg/kg, 150 mg/kg, and 200 mg/kg in mice divided in groups of two. […] One mouse injected with 150 mg/kg died at 6 hr whereas one mouse injected with 200 mg/kg dose died at 24 hr. One mouse injected with 100 mg/kg dose died at 48 hr.
Compound 13-9-1 was injected at a dose of 100 mg/kg, 150 mg/kg, and 200 mg/kg in mice divided in groups of two.

[2] = tested on: MIA PaCa, PANC-1, BxPc, AsPc; assay: MTT cell viability, pancreatic cancer cell lines; type: cell-based, human; conditions: 48 hr
Experimental: FIG. 8. Dose-response curves for cell viability of human pancreatic cancer cell lines MIA PaCa (squares), PANC-1 (lozenges), BxPc (crosses), and AsPc (triangles) exposed to de-ethylflavopereirine. Cells were cultured in the presence of increasing concentrations of the compound for 48 hr and cell viability was determined by MTT assay. MRC-5 (asterisks) was used as a control.
De-ethylflavopereirine was tested for its activity against ovarian, pancreatic, brain, and colon cancer cell lines. […] Cytotoxicity is assayed by reducing a yellow tetrazolium dye, 3-(4,5-dimethylthiazol-2-yl)-2,5-diphenyltetrazolium bromide (MTT), to insoluble purple formazan. The MTT assay is a colorimetric assay for determining the number of viable cells.

[3] = tested on: PANC-1 pancreatic cancer cells; assay: Cleavage of Caspase-3, Caspase-8 and PARP; type: cell-based; conditions: 0-20 μM for 48 hours; 20 μM for 0-48 hours
Description: FIG. 12. Cleavage of Caspase-3, Caspase-8, and PARP confirms that de-ethylflavopereirine induces apoptosis in PANC-1 pancreatic cancer cells. Beta-actin was used as a control.
Induction of apoptosis was also shown by detection of Caspase-8, Caspase-3, and PARP cleavage products. The cleaved protein products are identified in FIG. 12 by arrows adjacent to the right panel. The accumulation of these proteolytic fragments is a biochemical signature for apoptotic cell death.

PANC-1 cancer stem cells = assay: Tumor formation of PANC-1 cancer stem cells (FIG. 27); type: in vivo, mice; conditions: 2×10^5 pre-treated PANC-1 cells
Experimental: FIG. 27. Reduction of tumor formation by de-ethylflavopereirine. Compound 13-9-1 reduced tumor formation of PANC-1 cancer stem cells.
Mice were then treated with de-ethylflavopereirine for 20 days after injection. […] Maximum tumor formation rate reached 80% at day 39, which is a highly significant difference compared to control (P=0.001 by log-rank test).

β-catenin = β-catenin localization in PANC-1 cells (Wnt signaling); type: cell-based
Description: FIG. 28. Effect of de-ethylflavopereirine on β-catenin localization in the nucleus of PANC-1 cells. […] Cytoplasmic β-catenin levels were not affected under these conditions. Vinculin provided a marker for a cytoplasmic protein that is present in very low amounts in the nucleus.
Wnt pathway activation involves translocation of β-catenin from the cytoplasm into the nucleus and subsequent changes in transcription of targeted genes. Suppression of Wnt activation occurs when the translocation of β-catenin into the nucleus is suppressed. […] So de-ethylflavopereirine inhibits the growth of pancreatic cancer stem cells in part because it specifically suppresses Wnt signaling.

PANC-1 tumors = assay: Orthotopic PANC-1 luciferase tumors in nude mice; type: in vivo
Description: FIG. 16. Animal Study. PANC-1 cells with luciferase gene were orthotopically implanted into the pancreas of nude mice and the tumors were monitored by live-animal imaging. Longitudinal tumor growth shown by quantification of all images in the treated group (lozenges, n=9) and the untreated group (squares, n=10). Tumor burden is represented by average total photon flux (top) and its log transform (bottom).
Human PANC-1 pancreatic cancer cells were transfected with the luciferase gene to enable imaging in vivo. These cells were transplanted into the pancreas of nude mice and, after 10 days, tumors were established in the mice and they were treated with de-ethylflavopereirine by oral gavage. Longitudinal tumor progress was followed by live-animal imaging. The results of this experiment are depicted in FIGS. 16 to 21.

[4] = Alcohol-induced chronic pancreatitis model; type: in vivo; conditions: mice given ethanol and compound in the daily diet
Description: FIG. 29. Effects of de-ethylflavopereirine in a mice model of alcohol-induced chronic pancreatitis. Paraffin sections of the pancreas were stained with hematoxylin and eosin. […] This tissue protection was quantitated with an injury score (FIG. 29B). Ly6G was elevated four-fold in the pancreas of mice given ethanol while the number of neutrophils was not elevated in mice given ethanol and compound 13-9-1 (FIG. 29C).
Daily administration of ethanol to mice was followed by a binge of ethanol administration, a regimen relevant to human consumption. In the experimental group, de-ethylflavopereirine was included in the daily diet throughout the course of the experiment. There were two control groups: animals that were given no alcohol (negative control) and animals given alcohol without receiving the compound 13-9-1 (positive control). Following 10 days of alcohol treatment, the animals were gavaged with alcohol for 8 hours then euthanized, and their pancreatic tissues were collected. Pancreatic tissue sections were analyzed for histology and isolated RNA was used for quantitative PCR.

[5] = listed as de-ethylflavopereirine

## c1ccc2c(c1)[nH]c1c2cc[n+]2ccccc12 [Compound 13-9-1, 12H-indolo[2,3-a]quinolizin-5-ium]
AM-38
  IC50 relative to IC50 of temozolomide: 0.66 times
[1]
  deaths after IP injection: None of the mice injected with compound 13-9-1 died
[1]; [5]
  deaths after IP injection: no mice injected IP with de-ethylflavopereirine died
[2]
  cell viability: dose-dependent decrease in cancer cell viability
[3]
  cleavage of Caspase-3, Caspase-8 and PARP: dose- and time-dependent
PANC-1 cancer stem cells; Day 20
  tumor formation: 55%
PANC-1 cancer stem cells; Day 39
  maximum tumor formation rate: 80%
β-catenin; 24 and 48 hr
  cytoplasmic β-catenin levels: not affected
β-catenin; 24 hr post-treatment
  β-catenin levels in the nucleus: no effect
β-catenin; 48 hr post-treatment
  β-catenin levels in the nucleus: significantly reduced
PANC-1 tumors; day 0 through day 40
  body weight compared with untreated control group: indistinguishable
PANC-1 tumors; oral gavage
  mice whose tumors were completely abolished: 22%
PANC-1 tumors; oral gavage, treated (n=9) vs untreated (n=10)
  anti-tumor effect by tumor burden (total photon flux): significant
PANC-1 tumors; oral gavage, listed as de-ethylflavopereirine
  mice whose tumors were completely abolished (number of animals): 2/9 and two of 21
PANC-1 tumors; treated vs untreated
  examination of internal organs: failed to reveal any toxic effects
  final tumor weights at necropsy: statistically significant reduction
  metastatic lesions at necropsy: reduced
[4]
  Ly6G level / number of neutrophils in the pancreas: not elevated
  injury score: completely prevented injury
  pancreatic tissue damage (histology): prevented; also recorded: no tissue damage
[4]; [5]
  Ly6G level / number of neutrophils in the pancreas: completely normal Ly6G level
